Data taken from patent US10273234B2, “Compounds that are S1P modulating agents and/or ATX modulating agents” (BIOGEN MA INC., priority 2012, dated 2019).

Biological target: Human ATX protein (Homo sapiens (Human), UniProt Q13822)
Experiment: ATX biochemical FRET assay with FS-3 substrate
Conditions: 1.0 μg/mL ATX, 2 μM FS-3, 2 hours at room temperature
Description: ATX (Autotaxin) is a 125 KDa glycoprotein with lysophospholipase D (LPLD) activity that generates the bioactive lipid lysophosphatidic acid (LPA) from lysophosphatidylcholine (LPC). The ATX biochemical assay utilizes a FRET (fluorescence resonance energy transfer) technology platform. The fluorescence signal of FRET substrate FS-3 is quenched due to intra-molecular FRET of a fluorophore to a non-fluorescing quencher (Ferguson, C. G., et al., Org Lett. 2006 May 11; 8(10): 2023-2026, which is incorporated by reference in its entirety). ATX catalyzes the hydrolysis of the substrate which separates the dabsyl quencher from the fluorescein reporter, which becomes fluorescent. The reaction is monitored by a SpectraMax M5 (Molecular Devices, Sunnyvale, Calif.) with at excitation wavelength 485 nm and emission wavelength […].
2×ATX assay buffer: 100 mM Tris, 280 mM NaCl, 10 mM KCl, 2 mM CaCl2, 2 mM MgCl2, pH 7.4.
Human ATX protein: expressed and purified in house. Stored at −80° C.
Substrate FS-3 (Echelon, L-2000): 100 μg in 77.74 μL H2O (1 mM stock), stored at −20° C.
Compound dilution—All compounds were provided at 10 mM in 100% DMSO. In the first well, 2 μL of 10 mM compound was added to 78 μL of DMSO (1:40 dilution). In subsequent wells 3-fold dilution (total 10 dilutions) were performed.
1×ATX assay buffer was made up with a final concentration of 1 mg/mL fatty acid free-BSA using 2×ATX assay buffer, 10 mg/ml fatty acid free-BSA and ddH2O.
ATX protein was diluted with 1×ATX assay buffer to a concentration of 1.32 μg/mL (1.32×). 38 μL was added per well to the assay plate. The final concentration of ATX in the reaction as 1.0 μg/mL.
2 μL per well of compounds was transferred to provide the desired concentration. The plate was centrifuged, then incubated at room temperature for 30 minutes on the shaker.
FS-3 was diluted with 1×ATX assay buffer to a concentration of FS-3 of 10 μM (5×). Then, 10 μL was added per well to the assay plate. The final concentration of FS-3 in the reaction was 2 μM. The plate was centrifuged. The plate was kept shaking at room temperature for 2 hours. Because FS-3 substrate is light sensitive, plates were kept covered and protected from light.
Fluorescence was measured using SpectraMax M5 (excitation at 485 nm/emission at 538 nm, top read).

| IC50 [µM] | SMILES |
| --- | --- |
| < 0.5 | CC(C)(C)[C@H]1CC[C@H](Oc2cccc3cc(CN4CC(C(=O)O)C4)ccc23)CC1 [Example 4, 1-((5-((trans-4-(tert-butyl)cyclohexyl)oxy)naphthalen-2-yl)methyl)azetidine-3-carboxylic acid] |
| > 5 | CC(C)(C)[C@H]1CC[C@H](Oc2cccc3cc(CN4CCCC(C(=O)O)CC4)ccc23)CC1 (stereo partly drawn) [Example 8, 1-((5-((trans-4-(tert-butyl)cyclohexyl)oxy)naphthalen-2-yl)methyl)azepane-4-carboxylic acid] |
| 0.5 to 5 | O=C(O)C1CCN(Cc2ccc3c(O[C@H]4CC[C@H](C(F)(F)F)CC4)cccc3c2)CC1 [Example 9, 1-((5-((trans-4-(trifluoromethyl)cyclohexyl)oxy)naphthalen-2-yl)methyl)piperidine-4-carboxylic acid] |
| > 5 | O=C(O)C1CCN(Cc2ccc3c(O[C@H]4CC[C@@H](C(F)(F)F)CC4)cccc3c2)CC1 [Example 10, 1-((5-((cis-4-(trifluoromethyl)cyclohexyl)oxy)naphthalen-2-yl)methyl)piperidine-4-carboxylic acid] |
| > 5 | CC(C)[C@H]1CC[C@@H](Oc2cccc3cc(CN4CCC(C(=O)O)CC4)ccc23)CC1 [Example 11, 1-((5-((cis-4-isopropylcyclohexyl)oxy)naphthalen-2-yl)methyl)piperidine-4-carboxylic acid] |
| 0.5 to 5 | CC[C@H]1CC[C@@H](Oc2cccc3cc(CN4CCC(C(=O)O)CC4)ccc23)CC1 [Example 12, 1-((5-((cis-4-ethylcyclohexyl)oxy)naphthalen-2-yl)methyl)piperidine-4-carboxylic acid] |
| 0.5 to 5 | CC(C)[C@H]1CC[C@H](Oc2cccc3cc(CN4CCC(C(=O)O)CC4)ccc23)CC1 [Example 13, 1-((5-((trans-4-isopropylcyclohexyl)oxy)naphthalen-2-yl)methyl)piperidine-4-carboxylic acid] |
| 0.5 to 5 | CC[C@H]1CC[C@H](Oc2cccc3cc(CN4CCC(C(=O)O)CC4)ccc23)CC1 [Example 14, 1-((5-((trans-4-ethylcyclohexyl)oxy)naphthalen-2-yl)methyl)piperidine-4-carboxylic acid] |
| 0.5 to 5 | C[C@H]1CC[C@H](Oc2cccc3cc(CN4CCC(C(=O)O)CC4)ccc23)CC1 [Example 15, 1-((5-((trans-4-methylcyclohexyl)oxy)naphthalen-2-yl)methyl)piperidine-4-carboxylic acid] |
| > 5 | C[C@H]1CC[C@H](Oc2cccc3cc(CN4CC(C(=O)O)C4)ccc23)CC1 [Example 17, 1-((5-((trans-4-methylcyclohexyl)oxy)naphthalen-2-yl)methyl)azetidine-3-carboxylic acid] |
| 0.5 to 5 | CC[C@H]1CC[C@H](Oc2cccc3cc(CN4CC(C(=O)O)C4)ccc23)CC1 [Example 19, 1-((5-((trans-4-ethylcyclohexyl)oxy)naphthalen-2-yl)methyl)azetidine-3-carboxylic acid] |
| > 5 | CC(C)[C@H]1CC[C@H](Oc2cccc3cc(CN4CC(C(=O)O)C4)ccc23)CC1 [Example 21, 1-((5-((trans-4-isopropylcyclohexyl)oxy)naphthalen-2-yl)methyl)azetidine-3-carboxylic acid] |
| > 5 | CCCC[C@H]1CC[C@H](Oc2cccc3cc(CN4CC(C(=O)O)C4)ccc23)CC1 [Example 22, 1-((5-((trans-4-butylcyclohexyl)oxy)naphthalen-2-yl)methyl)azetidine-3-carboxylic acid] |
| > 5 | O=C(O)C1CN(Cc2ccc3c(O[C@H]4CC[C@H](C5CCCC5)CC4)cccc3c2)C1 [Example 23, 1-((5-((trans-4-cyclopentylcyclohexyl)oxy)naphthalen-2-yl)methyl)azetidine-3-carboxylic acid] |
| < 0.5 | CC(C)(C)[C@H]1CC[C@H](Oc2cccc3cc(CN4CCC(C(=O)O)CC4)ccc23)CC1 [Example 24, 1-((5-((trans-4-(tert-butyl)cyclohexyl)oxy)naphthalen-2-yl)methyl)piperidine-4-carboxylic acid] |
| > 5 | C[C@H]1CC[C@@H](Oc2cccc3cc(CN4CCC(C(=O)O)CC4)ccc23)CC1 [Example 28, 1-((5-((cis-4-methylcyclohexyl)oxy)naphthalen-2-yl)methyl)piperidine-4-carboxylic acid] |

The remaining lines, values behind:

| SMILES | IC50 [µM] |
| --- | --- |
| CC(C)(C)[C@H]1CC[C@H](Oc2cccc3cc(CN4C5CCC4CC(C(=O)O)C5)ccc23)CC1 (stereo partly drawn) [Example 1, 8-((5-((trans-4-(tert-butyl)cyclohexyl)oxy)naphthalen-2-yl)methyl)-8-azabicyclo[3.2.1]octane-3-carboxylic acid] | 0.5 to 5 |
| CC(C)(C)[C@H]1CC[C@H](Oc2cccc3cc(CN4C5CCCC4CC(C(=O)O)C5)ccc23)CC1 (stereo partly drawn) [Example 2, 9-((5-((trans-4-(tert-butyl)cyclohexyl)oxy)naphthalen-2-yl)methyl)-9-azabicyclo[3.3.1]nonane-3-carboxylic acid] | > 5 |
| CC1(C)C(NCc2ccc3c(O[C@H]4CC[C@H](C(C)(C)C)CC4)cccc3c2)CC1C(=O)O (stereo partly drawn) [Example 3, 3-(((5-((trans-4-(tert-butyl)cyclohexyl)oxy)naphthalen-2-yl)methyl)amino)-2,2-dimethylcyclobutanecarboxylic acid] | 0.5 to 5 |
| CC(C)(C)[C@H]1CC[C@H](Oc2cccc3cc(CN4CC5CC(C(=O)O)CC5C4)ccc23)CC1 (stereo partly drawn) [Example 5, 2-((5-((trans-4-(tert-butyl)cyclohexyl)oxy)naphthalen-2-yl)methyl)octahydrocyclopenta[c]pyrrole-5-carboxylic acid] | 0.5 to 5 |
| CC(C)(C)[C@H]1CC[C@H](Oc2cccc3cc(CNC4CC(C(=O)O)C4)ccc23)CC1 (stereo partly drawn) [Example 7, 3-(((5-((trans-4-(tert-butyl)cyclohexyl)oxy)naphthalen-2-yl)methyl)amino)cyclobutanecarboxylic acid] | 0.5 to 5 |
| O=C(O)C1CN(Cc2ccc3c(O[C@H]4CC[C@H](c5ccccc5)CC4)cccc3c2)C1 [Example 18, 1-((5-((trans-4-phenylcyclohexyl)oxy)naphthalen-2-yl)methyl)azetidine-3-carboxylic acid] | > 5 |
| O=C(O)C1CN(Cc2ccc3c(O[C@H]4CC[C@H](C(F)(F)F)CC4)cccc3c2)C1 [Example 20, 1-((5-((trans-4-(trifluoromethyl)cyclohexyl)oxy)naphthalen-2-yl)methyl)azetidine-3-carboxylic acid] | 0.5 to 5 |
| CCCCCCCOc1cccc2cc(CN3CCC(C(=O)O)CC3)ccc12 [Example 25, 1-((5-(heptyloxy)naphthalen-2-yl)methyl)piperidine-4-carboxylic acid] | > 5 |
| C[C@H]1CC[C@@H](Oc2cccc3cc(CN4C5CCCC4CC(C(=O)O)C5)ccc23)CC1 (stereo partly drawn) [Example 26, 9-((5-((cis-4-methylcyclohexyl)oxy)naphthalen-2-yl)methyl)-9-azabicyclo[3.3.1]nonane-3-carboxylic acid] | 0.5 to 5 |
| C[C@H]1CC[C@@H](Oc2cccc3cc(CN4C5CCC4CC(C(=O)O)C5)ccc23)CC1 (stereo partly drawn) [Example 27, 8-((5-((cis-4-methylcyclohexyl)oxy)naphthalen-2-yl)methyl)-8-azabicyclo[3.2.1]octane-3-carboxylic acid] | 0.5 to 5 |
